Entries after “also recorded” stand apart in the source; their conditions may differ.
Experiments:
[1] = system: GA activity in SKBR3 cells; experiment: GA activity in mitochondrial fractions; type: cell-based, human; conditions: 2 μM
Description: (§1) 100%=620 moles of glutamine hydrolyzed per minute per mole of enzyme. Data represent the average of 3 experiments (±s.d.). […] Following precipitation of the beads and re-suspension, the samples are analyzed by Western blotting with anti-V5 antibody. […] Data represent the average of 3 experiments (±s.d.). […] Data represent the average of 3 experiments (±s.d.). […] Data represent the average of 3 experiments (±s.d.). FIG. 3E NIH 3T3 cells transiently expressing Dbl are assayed for focus formation in the presence of 10 μM 968 alone or together with […] dimethyl α-ketoglutarate. […] 100%=680 nM glutamine hydrolyzed per minute per 10^5 cells. Data are the average of 3 experiments (=s.d.). […] 100%=750 nM glutamine hydrolyzed per minute per 10^5 cells. Data represent the average of 3 experiments (±s.d.).
(§2) FIGS. 4A-E illustrate the role of glutaminase C activity in cellular transformation. […] Data represent the average of 3 experiments (±s.d.). […] Data represent the average of 3 experiments (±s.d.). […] 100% represents the activity measured in untreated Dbl-transformed cells. The data represent the average of 2 experiments. […] 100% represents the activity measured in untreated SKBR3 cells. The data represent the average of 2 experiments. […] Data represent the average of 3 experiments (±s.d.).
FIGS. 11A-E illustrate the effects of different treatments on GA activity. […] The addition of Pi stimulated the GA activity in control 3T3 cells, Dbl-expressing cells, and Cdc42(F28L)-expressing cells by ˜6-fold, 2-fold, and 3-fold, respectively. 100% represents the Pi-stimulated activity measured for Dbl-transformed cells that are not treated with 968. Data is the average of 3 experiments (±s.d.). […] The addition of Pi stimulated the GA activity of HMECs, MDA-MB231 cells, and SKBR3 cells by ˜5-fold, 2-fold, and 1.4-fold, respectively. […] The data are plotted as the percentage of GA activity measured for untreated SKBR3 cells and represent the average of 2 experiments. […] 100% represents the P1-stimulated activity measured for untreateDbl-transformed cells. […]

[2] = system: GA activity in Dbl- and Cdc42(F28L)-expressing NIH 3T3 cells; experiment: GA activity in mitochondrial fractions of transformed fibroblasts; type: cell-based; conditions: Dbl-transformed cells, 2 μM
Description: as §1, §2
FIGS. 11A-E illustrate the effects of different treatments on GA activity. […] The addition of Pi stimulated the GA activity in control 3T3 cells, Dbl-expressing cells, and Cdc42(F28L)-expressing cells by ˜6-fold, 2-fold, and 3-fold, respectively. 100% represents the Pi-stimulated activity measured for Dbl-transformed cells that are not treated with 968. Data is the average of 3 experiments (±s.d.). […] The addition of Pi stimulated the GA activity of HMECs, MDA-MB231 cells, and SKBR3 cells by ˜5-fold, 2-fold, and 1.4-fold, respectively. 100% represents the Pi-stimulated activity for SKBR3 cells that were not treated with 968. Data are the average of 3 experiments (±s.d.). […] Mitochondrial fractions are prepared from equal numbers of cells and assayed for GA activity in the presence or absence of 133 mM Pi. The data are plotted as the percentage of GA activity measured for untreated SKBR3 cells and represent the average of 2 experiments. […] 100% represents the P1-stimulated activity measured for untreateDbl-transformed cells. The data represent the average of 2 experiments. […] 100% represents the Pi-stimulated activity for untreated SKBR3 cells. The data represent the average of 2 experiments.
Mitochondrial preparations were obtained using the mitochondria isolation kit from QIAGEN (Cat #37612). A suspension containing 2×10^7 cells was transferred into a 50 ml conical tube and centrifuged at 500×g for 10 minutes at 4° C. […]

[3] = system: NIH 3T3 cells transfected with oncogenic Dbl; experiment: Dbl-induced cellular transformation (focus-forming assays, growth in low serum, soft agar); type: cell-based; conditions: focus formation / growth in low serum
Description: FIGS. 1A-E illustrate that the small molecule 968 inhibiting cellular transformation. […] Cells were fixed and stained with crystal violet for counting of foci. Right: 968 was serially diluted (10, 5, 2.5, and 1.25 μM) and evaluated for its ability to inhibit focus formation. […] After 6 days, the cells are counted. 100% represents the number of Dbl-transformed cells counted in the absence of 968 (27.5×10^4 cells). Data represent the average of 3 experiments (±s.d.). […] At the indicated times, the cells are counted. Data represent the average of 3 experiments (±s.d.).
FIGS. 2A-G illustrate effects of 968 on the transforming activity of constitutively active Rho GTPases and human breast cancer cells. […] Cells are scored after 14 days and plotted as the percentage of the total number of colonies greater than […] in diameter. Data represent the average of 3 experiments (±s.d.). […] Data represent the average of 3 experiments (±s.d.). […] Data represent the average of 3 experiments (±s.d.). […] After 24 hours at 37° C. the migratory cells are fixed, stained with GIEMSA, and counted. Data represent the average of 3 experiments (±s.d.). […] Data represent the average of 3 experiments (±s.d.). […] Data represent the average of 3 experiments (±s.d.). […] Data represent the average of 3 experiments (±s.d.).
FIGS. 5A-C illustrate comparative abilities of 968 and other benzo[a]phenanthrldinones to inhibit the transforming activity of oncogenic Dbl and H-Ras. […] Histograms show the relative levels of Dbl-induced focus formation for the different treatments, compared to Dbl-induced focus formation measured in the presence of DMSO (i.e. solvent control). Data represent the average of 3 experiments (mean±s.d.). […] Histograms show the relative levels of Ras(G12V)-induced focus formation measured for the different treatments, compared to Ras(G12V)-induced focus formation measured in the presence of DMSO (solvent control). Data represent the average of 3 experiments (mean±s.d.). FIG. 5C NIH 3T3 cells stably expressing H-Ras(G12V) that are cultured in DMEM supplemented with 1% calf serum, with the indicated amounts of 968. After 6 days, cells are trypsinized and counted. 100% represents the number of cells counted in the absence of 968, i.e. 26×10^4 cells. Data represent the average of 3 experiments (mean±s.d.).

[4] = molecular target: T1, E. coli-expressed mouse ortholog of human GAC (Mus musculus, UniProt D3Z7P3); experiment: Recombinant glutaminase activity assay; type: biochemical
T1 construct: A plasmid encoding mouse GAC (residues 128-603) was cloned into the pET28a vector; His-tag (N, cleaved yes); made in house; host or cells: E. coli (pET28a)
T1 sequence (D3Z7P3 128-603 isoform D3Z7P3-2): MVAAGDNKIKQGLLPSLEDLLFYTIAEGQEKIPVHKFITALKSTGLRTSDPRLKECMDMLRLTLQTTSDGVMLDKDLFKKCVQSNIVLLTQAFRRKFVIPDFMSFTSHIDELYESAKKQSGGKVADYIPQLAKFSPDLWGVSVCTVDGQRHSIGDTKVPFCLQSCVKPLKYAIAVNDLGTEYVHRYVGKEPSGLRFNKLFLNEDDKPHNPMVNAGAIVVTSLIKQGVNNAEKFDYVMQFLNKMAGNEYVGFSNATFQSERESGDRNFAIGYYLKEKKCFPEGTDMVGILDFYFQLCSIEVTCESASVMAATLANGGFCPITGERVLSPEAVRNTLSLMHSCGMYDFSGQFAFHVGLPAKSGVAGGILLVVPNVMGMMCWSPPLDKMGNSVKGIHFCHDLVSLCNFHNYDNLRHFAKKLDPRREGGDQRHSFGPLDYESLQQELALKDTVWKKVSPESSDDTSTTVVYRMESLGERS
Description: as §1
The activity of the E. coli-expressed recombinant mouse ortholog of human GAC are assayed in the presence of 0 (●), 10 (∇) or 20 (▪) μM 968 and inorganic phosphate in the form of dipotassium hydrogen phosphate. […] The data are plotted as GA activity as function of varying concentrations of glutamine or inorganic phosphate. The data are the average of 3 experiments and are plotted as mean±SEM.
Glutaminase activity assays were performed on recombinant enzyme as previously described (Kenny et al., “Bacterial Expression, Purification and Characterization of Rat Kidney-Type Mitochondrial Glutaminasc,” Protein Expr. Purif 31:140-148 (2003), which is hereby incorporated by reference in its entirety). A plasmid encoding mouse GAC (residues 128-603) was cloned into the pET28a vector and the protein was expressed with an N-terminal histidine (His)-tag. The tag was cleaved using thrombin and the protein was further purified by anion-exchange and gel-filtration chromatography. […] The reaction mixture was incubated at room temperature for 45 minutes and the absorbance at 340 nm was recorded for each sample against a water blank. The absorbance of the sample with just the cocktail mixture was subtracted from each reading to calculate the activity of the enzyme.

[5] = molecular target: T2, V5-tagged GAC from Dbl-transformed NIH 3T3 cells (Mus musculus, UniProt D3Z7P3); experiment: GA activity of immunoprecipitated V5-GAC; type: cell-based; conditions: GAC isolated from Dbl cells, dephosphorylation conditions
T2 construct: expressed in transfected cells; host or cells: NIH 3T3 cells stably expressing oncogenic Dbl
T2 sequence (D3Z7P3 55-603 isoform D3Z7P3-2 limits assumed): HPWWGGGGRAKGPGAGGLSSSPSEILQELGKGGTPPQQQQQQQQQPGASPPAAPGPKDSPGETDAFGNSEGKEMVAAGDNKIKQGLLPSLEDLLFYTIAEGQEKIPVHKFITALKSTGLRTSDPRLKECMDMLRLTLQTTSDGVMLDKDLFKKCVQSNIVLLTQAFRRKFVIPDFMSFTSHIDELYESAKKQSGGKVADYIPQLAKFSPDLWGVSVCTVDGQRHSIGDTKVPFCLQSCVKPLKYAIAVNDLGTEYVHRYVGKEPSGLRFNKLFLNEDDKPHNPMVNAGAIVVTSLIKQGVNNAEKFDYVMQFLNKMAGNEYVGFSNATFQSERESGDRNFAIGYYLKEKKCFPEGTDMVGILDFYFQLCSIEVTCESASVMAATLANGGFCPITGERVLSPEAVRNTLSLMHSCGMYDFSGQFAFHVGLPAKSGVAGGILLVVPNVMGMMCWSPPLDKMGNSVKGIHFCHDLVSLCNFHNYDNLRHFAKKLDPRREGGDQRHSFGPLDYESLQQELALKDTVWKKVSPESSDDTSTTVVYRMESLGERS
Excerpt: as §2
NIH 3T3 cells or NIH 3T3 cells stably expressing the Dbl oncogene, were transiently transfected with DNA encoding a V5-tagged GAC. The cells were then harvested and the ectopically expressed GAC was isolated by immunoprecipitation via the V5 tag. The VS-GAC obtained from one of the Dbl samples was additionally treated with alkaline phosphtase under dephosphorylation conditions. The samples were then assayed for glutaminase activity in the absence of phosphate (top panel) and the relative expression levels of VS-GAC was determined by Western blotting using an anit-V5 antibody (bottom panel).
NIH 3T3 cells stably expressing oncogenic Dbl were transiently transfected with DNA encoding VS-tagged GAC, and cells were treated with either 968 or BA-968 ([…]) as indicated for 48 hours. The cells were then harvested and the ectopically expressed GAC was isolated by immunoprecipitation via the V5 tag. The samples were then assayed for glutaminase activity in the absence of phosphate (top panel) and the relative expression levels of VS-GAC was determined by Western blotting using an anti-V5 antibody (bottom panel).

For `Cc1ccc(S(=O)(=O)/C=C/C#N)cc1` [BAY 11-7082, reference compound], the “basal GA activity” value [1] was “significantly reduces”, the “direct stimulation of the enzyme by phosphate” value [1] was “little or no effect” and the “direct stimulation of the enzyme by phosphate” value [2] was “little or no effect”. For the same compound, the “basal GA activity” value ([2]; 2 days) was “significantly reduces”.
`CC1(C)CC(=O)C2=C(C1)c1c(ccc3ccccc13)NC2c1cccc(Br)c1` (centres unmarked) [Compound 335] was tested, and the “inhibition of Dbl-induced transformation” value [3] was “little or no inhibition; also recorded: less effective” and the “inhibition of enzymatic activity of purified GAC” value [4] was “little ability to inhibit enzyme activity”.
`CN(C)c1ccc(C2Nc3ccc4ccccc4c3C3=C2C(=O)CC(C)(C)C3)cc1` (centres unmarked) [Compound 384] was tested, and the “inhibition of Dbl-induced transformation” value [3] was “little or no inhibition”.
“alkaline phosphatase [reference compound]” was tested, and the “reduction of basal glutaminase (phosphate independent) activity” value [5] was 75%.

— patent publication US10987317B2, “Inhibition of glutaminase C” (Cornell University, priority 2009, dated 2021)
